pIC50: −log10 of the molar value.

Common to all, as to type: cell-based
The target of one test is T1, human TLR8 (Homo sapiens, UniProt Q9NR97).
T1 construct: host or cells: HEK-Blue cells
T1 sequence (Q9NR97 27-1041): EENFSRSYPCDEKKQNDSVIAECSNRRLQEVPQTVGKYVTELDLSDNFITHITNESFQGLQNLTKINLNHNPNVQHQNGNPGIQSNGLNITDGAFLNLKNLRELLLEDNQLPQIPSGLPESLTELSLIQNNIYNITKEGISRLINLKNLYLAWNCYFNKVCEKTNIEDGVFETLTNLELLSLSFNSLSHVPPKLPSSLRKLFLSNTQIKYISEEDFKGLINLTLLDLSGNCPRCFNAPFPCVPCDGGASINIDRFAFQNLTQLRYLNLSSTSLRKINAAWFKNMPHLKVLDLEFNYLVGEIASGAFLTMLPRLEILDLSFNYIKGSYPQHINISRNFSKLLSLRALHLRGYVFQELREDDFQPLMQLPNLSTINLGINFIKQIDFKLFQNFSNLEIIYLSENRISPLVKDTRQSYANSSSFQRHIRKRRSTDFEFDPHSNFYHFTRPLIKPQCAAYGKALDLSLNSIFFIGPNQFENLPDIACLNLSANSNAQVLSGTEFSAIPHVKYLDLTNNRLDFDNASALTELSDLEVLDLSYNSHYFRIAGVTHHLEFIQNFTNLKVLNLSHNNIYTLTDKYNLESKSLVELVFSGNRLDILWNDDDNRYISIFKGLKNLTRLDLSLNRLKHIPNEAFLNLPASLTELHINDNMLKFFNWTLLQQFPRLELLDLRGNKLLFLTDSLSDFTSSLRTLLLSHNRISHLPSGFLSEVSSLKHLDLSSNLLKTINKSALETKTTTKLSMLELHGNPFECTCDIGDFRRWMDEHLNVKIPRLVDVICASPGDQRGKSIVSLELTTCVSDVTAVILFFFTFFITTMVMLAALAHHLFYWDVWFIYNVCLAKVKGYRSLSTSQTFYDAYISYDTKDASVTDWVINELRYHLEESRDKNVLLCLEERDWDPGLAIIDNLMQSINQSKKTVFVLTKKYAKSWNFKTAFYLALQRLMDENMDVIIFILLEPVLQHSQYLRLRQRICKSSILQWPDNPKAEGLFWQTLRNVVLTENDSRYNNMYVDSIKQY
Nature of the test: TLR8 inhibition reporter assay (HEK-Blue SEAP reporter). To be noted: HEK-Blue cells overexpressing human TLR8; R848 15.9 μM; 22 hour incubation. An outline of the steps:
(§1)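 Screening used HEK-Blue cells overexpressing one human TLR (7, 8 or 9) and an IFN-β minimal promoter–NF-κB/AP-1 SEAP construct. Stimulation lasted 22 h at 37 °C with receptor-specific agonist: gardiquimod, R848 or ODN2006 at 7.5 μM, 15.9 μM and 5 nM.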
For orientation: Reporter assays use an easily measured gene product as a stand-in for the process of interest.

The target in a further test is T2, human TLR9 (Homo sapiens, UniProt Q9NR96).
T2 construct: host or cells: HEK-Blue cells
T2 sequence (Q9NR96 26-1032): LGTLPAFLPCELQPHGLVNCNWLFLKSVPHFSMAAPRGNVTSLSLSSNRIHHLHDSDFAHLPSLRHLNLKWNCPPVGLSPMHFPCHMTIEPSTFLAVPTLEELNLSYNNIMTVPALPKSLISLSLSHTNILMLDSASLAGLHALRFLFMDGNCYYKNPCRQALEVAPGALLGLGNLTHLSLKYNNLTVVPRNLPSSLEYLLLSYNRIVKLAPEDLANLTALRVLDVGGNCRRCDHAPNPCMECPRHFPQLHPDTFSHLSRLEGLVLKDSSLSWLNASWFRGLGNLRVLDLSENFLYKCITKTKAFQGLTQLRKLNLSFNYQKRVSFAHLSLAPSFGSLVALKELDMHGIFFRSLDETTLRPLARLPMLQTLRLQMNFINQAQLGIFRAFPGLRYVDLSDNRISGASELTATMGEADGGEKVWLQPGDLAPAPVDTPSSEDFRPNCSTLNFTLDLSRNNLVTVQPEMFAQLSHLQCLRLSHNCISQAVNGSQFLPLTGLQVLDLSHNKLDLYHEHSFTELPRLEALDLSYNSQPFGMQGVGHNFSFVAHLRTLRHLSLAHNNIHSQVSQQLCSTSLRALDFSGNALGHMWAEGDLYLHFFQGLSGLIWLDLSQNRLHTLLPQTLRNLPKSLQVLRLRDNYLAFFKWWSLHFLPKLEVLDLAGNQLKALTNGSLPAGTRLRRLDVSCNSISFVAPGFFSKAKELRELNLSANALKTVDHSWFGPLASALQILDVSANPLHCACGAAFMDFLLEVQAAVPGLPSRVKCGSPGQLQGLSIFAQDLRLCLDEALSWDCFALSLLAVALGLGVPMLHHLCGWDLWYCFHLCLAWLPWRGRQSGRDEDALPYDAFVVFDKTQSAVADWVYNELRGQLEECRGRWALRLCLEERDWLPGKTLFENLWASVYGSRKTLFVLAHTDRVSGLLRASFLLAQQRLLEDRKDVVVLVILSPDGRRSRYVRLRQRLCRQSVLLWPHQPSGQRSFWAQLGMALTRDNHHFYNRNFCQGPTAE
Nature of the test: TLR9 inhibition reporter assay (HEK-Blue SEAP reporter). Particulars: HEK-Blue cells overexpressing human TLR9; ODN2006 5 nM; 22 hour incubation. The procedure, abridged: as §1

The next test concerns the target T3, human TLR7 (Homo sapiens, UniProt Q9NYK1).
T3 construct: host or cells: HEK-Blue cells
T3 sequence (Q9NYK1 27-1049): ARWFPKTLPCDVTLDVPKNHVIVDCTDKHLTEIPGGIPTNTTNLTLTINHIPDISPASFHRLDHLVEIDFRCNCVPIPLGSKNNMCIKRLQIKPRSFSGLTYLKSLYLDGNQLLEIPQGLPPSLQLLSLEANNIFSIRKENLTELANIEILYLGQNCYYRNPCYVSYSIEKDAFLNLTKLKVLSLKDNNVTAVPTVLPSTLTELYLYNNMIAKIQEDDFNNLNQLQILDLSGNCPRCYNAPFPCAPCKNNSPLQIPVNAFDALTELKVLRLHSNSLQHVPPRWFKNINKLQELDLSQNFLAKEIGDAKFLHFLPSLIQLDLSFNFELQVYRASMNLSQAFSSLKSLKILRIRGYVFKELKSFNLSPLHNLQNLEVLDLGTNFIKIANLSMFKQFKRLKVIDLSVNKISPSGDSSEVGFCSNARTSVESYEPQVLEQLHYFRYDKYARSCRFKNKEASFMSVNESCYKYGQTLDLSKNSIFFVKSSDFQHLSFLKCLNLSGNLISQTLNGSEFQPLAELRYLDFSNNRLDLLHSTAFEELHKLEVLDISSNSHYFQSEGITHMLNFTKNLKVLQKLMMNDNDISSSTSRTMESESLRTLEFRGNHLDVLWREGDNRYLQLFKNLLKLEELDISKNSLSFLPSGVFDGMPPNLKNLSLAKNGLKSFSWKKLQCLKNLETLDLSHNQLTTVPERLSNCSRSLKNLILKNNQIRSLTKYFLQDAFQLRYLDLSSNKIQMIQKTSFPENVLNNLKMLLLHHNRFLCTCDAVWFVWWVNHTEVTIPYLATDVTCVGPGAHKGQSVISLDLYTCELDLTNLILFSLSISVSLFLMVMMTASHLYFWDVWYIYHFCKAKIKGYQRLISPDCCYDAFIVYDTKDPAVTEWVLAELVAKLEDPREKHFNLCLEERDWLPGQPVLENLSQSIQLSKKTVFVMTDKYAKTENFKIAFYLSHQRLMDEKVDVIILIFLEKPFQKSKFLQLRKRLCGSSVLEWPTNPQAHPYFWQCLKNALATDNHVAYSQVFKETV
Nature of the test: TLR7 inhibition reporter assay (HEK-Blue SEAP reporter). Particulars: HEK-Blue cells overexpressing human TLR7; gardiquimod 7.5 μM; 22 hour incubation. An outline of the steps:
as §1

Broadly, the pIC50 is the negative decadic logarithm of the IC50, by convention in mol/L. A higher pIC50 goes with a small IC50. Regarding `COc1ccc(-c2[nH]c3ccc(NC(=O)[C@@H](N)c4ccccc4)cc3c2C(C)C)cc1OC` [Example 25, (S)-2-amino-N-(2-(3,4-dimethoxyphenyl)-3-isopropyl-1H-indol-5-yl)-2-phenylacetamide], the negative-log IC50 (pIC50) on human TLR8 is 7.00; at human TLR9 it was less than 4.30; at human TLR7, 6.21.
The like results for `COc1ccc(-c2[nH]c3ccc(N4CCC(NCCCN(C)C)CC4)cc3c2C(C)C)cc1OC` [Example 77, N1-(1-(2-(3,4-dimethoxyphenyl)-3-isopropyl-H-indol-5-yl)piperidin-4-yl)-N3,N3-dimethylpropane-1,3-diamine] were, in that order, 8.02, 5.70 and 7.21.
As for `Cc1cc(-c2[nH]c3ccc(N4CCNC4=O)cc3c2C(C)C)ccn1` [Example 8, 1-(3-isopropyl-2-(2-methylpyridin-4-yl)-1H-indol-5-yl)imidazolidin-2-one], the pIC50 is 7.60 at human TLR8, less than 4.30 against human TLR9 and 7.04 against human TLR7.
The like results for `CCc1c(-c2ccnc3[nH]ncc23)[nH]c2ccc(N3CCN(C4CCN(C(C)C)CC4)CC3)cc12` [Example 159, 4-(3-ethyl-5-(4-(1-isopropylpiperidin-4-yl)piperazin-1-yl)-1H-indol-2-yl)-1H-pyrazolo[3,4-b]pyridine] were, in that order, 5.22, 6.16 and 5.25.
The like results for `Cc1c(-c2ccnc3[nH]ccc23)[nH]c2ccc(N3CCN(C4CCN(C(C)C)CC4)CC3)cc12` [Example 151, 4-(5-(4-(1-isopropylpiperidin-4-yl)piperazin-1-yl)-3-methyl-1H-indol-2-yl)-1H-pyrrolo[2,3-b]pyridine] were, in that order, 4.32, 6.49 and 5.37.
For `CCc1c(-c2ccc(OC)c(OC)c2)[nH]c2ccc(N3CCN(C4CC(C)(C)NC(C)(C)C4)CC3)cc12` [Example 176, 2-(3,4-dimethoxyphenyl)-3-ethyl-5-(4-(2,2,6,6-tetramethylpiperidin-4-yl)piperazin-1-yl)-1H-indole] the same measures were 7.55, 6.06 and 7.17.
For the compound `CNCCN1CCN(c2ccc3[nH]c(-c4ccc(OC)c(OC)c4)c(C(C)C)c3c2)CC1` [Example 127, 2-(4-(2-(3,4-dimethoxyphenyl)-3-isopropyl-1H-indol-5-yl)piperazin-1-yl)-N-methylethanamine], the negative-log IC50 (pIC50) was 7.82 at human TLR8, 5.20 on human TLR9 and 7.35 at human TLR7.
On to `COc1ccc(-c2[nH]c3ccc(N4CC(N5CCCNCC5)C4)cc3c2C(C)C)cc1OC` [Example 29, 5-(3-(1,4-diazepan-1-yl)azetidin-1-yl)-2-(3,4-dimethoxyphenyl)-3-isopropyl-1H-indole], for which the figures for the pIC50 at human TLR8, against human TLR9 and on human TLR7 were 7.57, 5.43 and 6.12, respectively.
For `CC(C)c1c(-c2ccnc3[nH]ncc23)[nH]c2ccc(NC(=O)[C@H]3CCNC3)cc12` [Example 10, (S)—N-(3-isopropyl-2-(1H-pyrazolo[3,4-b]pyridin-4-yl)-1H-indol-5-yl)pyrrolidine-3-carboxamide] the same measures were 7.02, 5.11 and 7.14.
For `COc1ccc(-c2[nH]c3ccc(N4CCC(C)(N5CCOCC5)CC4)cc3c2C(C)C)cc1OC` [Example 117, 4-(1-(2-(3,4-dimethoxyphenyl)-3-isopropyl-H-indol-5-yl)-4-methylpiperidin-4-yl)morpholine] the same measures were 8.28, 5.30 and 6.73.
On to `COc1ccc(-c2[nH]c3ccc(NC4CCC(N(C)CCN(C)C)CC4)cc3c2C(C)C)cc1OC` (stereo not drawn) [Example 35, N1-(2-(3,4-dimethoxyphenyl)-3-isopropyl-1H-indol-5-yl)-N4-(2-(dimethylamino)ethyl)-N4-methylcyclohexane-1,4-diamine], for which the pIC50 was 6.58 against human TLR8, 6.22 on human TLR9 and 6.89 on human TLR7.
For `COc1ccc(-c2[nH]c3ccc(N(C)CC4CCCN4C)cc3c2C(C)C)cc1OC` (stereo not drawn) [Example 104, 2-(3,4-dimethoxyphenyl)-3-isopropyl-N-methyl-N-((1-methylpyrrolidin-2-yl)methyl)-1H-indol-5-amine] the same measures were 8.01, 5.17 and 5.88.
On to `CCc1c(-c2ccnc(C)c2)[nH]c2ccc(N3CCN(C4CCN(C(C)C)CC4)CC3)cc12` [Example 147, 3-ethyl-5-(4-(1-isopropylpiperidin-4-yl)piperazin-1-yl)-2-(2-methylpyridin-4-yl)-1H-indole], for which the values for the negative logarithm of the IC50 (pIC50) against human TLR8, at human TLR9 and on human TLR7 were 4.75, 6.64 and 5.33, respectively.
For `COc1ccc(-c2[nH]c3ccc(NC(=O)[C@H](N)CCC(N)=O)cc3c2C(C)C)cc1OC` [Example 22, (R)-2-amino-N1-(2-(3,4-dimethoxyphenyl)-3-isopropyl-1H-indol-5-yl)pentanediamide] the same measures were 6.67, 4.71 and 6.17.

The record behind these values is patent publication US11306092B2, “Amino indole compounds useful as TLR inhibitors” (BRISTOL-MYERS SQUIBB COMPANY, priority 2017, dated 2022).
